Test results published in patent US8163771B2, “11 β-HSD1 modulators” (Exelixis, Inc., priority 2008, dated 2012).

Biological target: T1, recombinant human 11 β-HSD1 (Homo sapiens, UniProt P28845)
T1 construct: made in house; host or cells: E. coli
Test: 11 β-HSD1 SPA Assay (Scintillation Proximity Assay)
Format: biochemical
Outline: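 Scintillation proximity read-out of cortisol formed from 40 nM [3H]cortisone by purified recombinant human enzyme (30-100 nM, E. coli) with 1 mM NADPH, pH7.4, 2 hours at room temperature; beads with cortisol antibody and glycyrrhetinic acid stop the reaction, read next day. IC50 derived from inhibition normalised to background and maximal wells.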

T1 sequence (P28845 whole entry): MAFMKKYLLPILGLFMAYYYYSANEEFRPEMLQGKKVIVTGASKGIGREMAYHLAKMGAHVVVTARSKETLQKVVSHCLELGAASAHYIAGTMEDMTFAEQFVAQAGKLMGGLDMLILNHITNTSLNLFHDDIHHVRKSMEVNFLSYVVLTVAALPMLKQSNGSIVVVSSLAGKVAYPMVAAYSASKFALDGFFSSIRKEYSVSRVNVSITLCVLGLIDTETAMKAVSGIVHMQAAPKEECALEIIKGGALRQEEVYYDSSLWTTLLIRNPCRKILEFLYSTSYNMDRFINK

Compound | IC50
CC(C)(Oc1cc(CC(=O)O)c(Cl)cc1Cl)C(=O)N[C@H]1C[C@H]2CC[C@@H](C1)N2c1ccc(C(=O)NCC(F)F)cn1 [Example 460, [2,4-dichloro-5-({1-[(8-{5-[(2,2-difluoroethyl)carbamoyl]pyridin-2-yl}-8-azabicyclo[3.2.1]oct-3-endo-yl)amino]-2-methyl-1-oxopropan-2-yl}oxy)phenyl]acetic acid] | < 0.2 µM
CC(C)(Oc1ccc(Cl)cc1Cl)C(=O)NC1CC2CCC(C1)N2c1ccc(C(=O)N2CC[C@@H](O)C2)cn1 (stereo partly drawn) [Example 461, 2-(2,4-dichlorophenoxy)-n-[8-(5-{[(3r)-3-hydroxypyrrolidin-1-yl]carbonyl}pyridin-2-yl)-8-azabicyclo[3.2.1]oct-3-endo-yl]-2-methylpropanamide] | < 0.2 µM
CC(C)(Oc1ccc(Cl)cc1Cl)C(=O)NC1CC2CCC(C1)N2c1ccc(C(=O)N2CC[C@H](O)C2)cn1 (stereo partly drawn) [Example 462, 2-(2,4-dichlorophenoxy)-N-[8-(5-{[(3s)-3-hydroxypyrrolidin-1-yl]carbonyl}pyridin-2-yl)-8-azabicyclo[3.2.1]oct-3-endo-yl]-2-methylpropanamide] | < 0.2 µM
CC(C)(Oc1ccc(Cl)cc1Cl)C(=O)NC1CC2CCC(C1)N2c1ccc(C(=O)NC(CO)C(F)(F)F)cn1 (stereo not drawn) [Example 463, 6-(3-endo-{[2-(2,4-dichlorophenoxy)-2-methylpropanoyl]amino}-8-azabicyclo[3.2.1]oct-8-yl)-N-(1,1,1-trifluoro-3-hydroxypropan-2-yl)pyridine-3-carboxamide] | < 0.2 µM
CC(C)(Oc1cc(Cl)c(CO)cc1Cl)C(=O)N[C@H]1C[C@H]2CC[C@@H](C1)N2c1ccc(C(=O)NCC(F)F)cn1 [Example 464, 6-[3-endo-({2-[2,5-dichloro-4-(hydroxymethyl)phenoxy]-2-methylpropanoyl}amino)-8-azabicyclo[3.2.1]oct-8-yl]-N-(2,2-difluoroethyl)pyridine-3-carboxamide] | < 0.2 µM
CC(C)(Oc1ccc(Cl)cc1C(C)(C)O)C(=O)N[C@H]1C[C@H]2CC[C@@H](C1)N2c1ccc(C(=O)NCC(F)F)cn1 [Example 465, 6-[3-endo-({2-[4-chloro-2-(2-hydroxypropan-2-yl)phenoxy]-2-methylpropanoyl}amino)-8-azabicyclo[3.2.1]oct-8-yl]-N-(2,2-difluoroethyl)pyridine-3-carboxamide] | < 0.2 µM
CC(C)(Oc1cc(C(C)(C)O)c(Cl)cc1F)C(=O)N[C@H]1C[C@H]2CC[C@@H](C1)N2c1ccc(C(=O)NCC(F)F)cn1 [Example 466, 6-(3-endo-(2-(4-chloro-2-fluoro-5-(2-hydroxypropan-2-yl)phenoxy)-2-methylpropanamido)-8-azabicyclo[3.2.1]octan-8-yl)-N-(2,2-difluoroethyl)nicotinamide] | < 0.2 µM
CC(C)(Oc1ccc(F)cc1C(C)(C)O)C(=O)N[C@H]1C[C@H]2CC[C@@H](C1)N2c1ccc(C(=O)NCC(F)F)cn1 [Example 467, N-(2,2-difluoroethyl)-6-(3-endo-(2-(4-fluoro-2-(2-hydroxypropan-2-yl)phenoxy)-2-methylpropanamido)-8-azabicyclo[3.2.1]octan-8-yl)nicotinamide] | < 0.2 µM
CC(C)(Oc1cc(C(C)(C)O)c(F)cc1F)C(=O)N[C@H]1C[C@H]2CC[C@@H](C1)N2c1ccc(C(=O)NCC(F)F)cn1 [Example 468, N-(2,2-difluoroethyl)-6-[3-endo-({2-[2,4-difluoro-5-(2-hydroxypropan-2-yl)phenoxy]-2-methylpropanoyl}amino)-8-azabicyclo[3.2.1]oct-8-yl]pyridine-3-carboxamide] | < 0.2 µM
CC(C)(Oc1ccc(Cl)cc1OC(F)F)C(=O)N[C@H]1C[C@H]2CC[C@@H](C1)N2c1ccc(C(=O)NCC(F)F)cn1 [Example 469, 6-[3-endo-({2-[4-chloro-2-(difluoromethoxy)phenoxy]-2-methylpropanoyl}amino)-8-azabicyclo[3.2.1]oct-8-yl]-N-(2,2-difluoroethyl)pyridine-3-carboxamide] | < 0.2 µM
CC(C)(Oc1ccc(Cl)cc1Cl)C(=O)NC1CC2CCC(C1)N2c1ccc(C(=O)NCC(N2CCOCC2)C(F)(F)F)cn1 (stereo not drawn) [Example 470, 6-(3-endo-{[2-(2,4-dichlorophenoxy)-2-methylpropanoyl]amino}-8-azabicyclo[3.2.1]oct-8-yl)-N-[3,3,3-trifluoro-2-(morpholin-4-yl)propyl]pyridine-3-carboxamide] | < 0.2 µM
CC(C)(Oc1ccc(C(C)(C)O)cc1Cl)C(=O)N[C@H]1C[C@H]2CC[C@@H](C1)N2c1ccc(C(=O)NCC(F)F)cn1 [Example 471, 6-[3-endo-({2-[2-chloro-4-(2-hydroxypropan-2-yl)phenoxy]-2-methylpropanoyl}amino)-8-azabicyclo[3.2.1]oct-8-yl]-N-(2,2-difluoroethyl)pyridine-3-carboxamide] | < 0.2 µM
CC(C)(Oc1cc(C(C)(C)O)c(F)cc1Cl)C(=O)N[C@H]1C[C@H]2CC[C@@H](C1)N2c1ccc(C(=O)NCC(F)F)cn1 [Example 472, 6-[3-endo-({2-[2-chloro-4-fluoro-5-(2-hydroxypropan-2-yl)phenoxy]-2-methylpropanoyl}amino)-8-azabicyclo[3.2.1]oct-8-yl]-N-(2,2-difluoroethyl)pyridine-3-carboxamide] | < 0.2 µM
CC(C)(Oc1cc(C(C)(C)O)c(Cl)cc1Cl)C(=O)N[C@H]1C[C@H]2CC[C@@H](C1)N2c1ccc(C(N)=O)cn1 [Example 473, 6-[3-endo-({2-[2,4-dichloro-5-(2-hydroxypropan-2-yl)phenoxy]-2-methylpropanoyl}amino)-8-azabicyclo[3.2.1]oct-8-yl]pyridine-3-carboxamide] | < 0.2 µM
CC(C)(Oc1cc(C(C)(C)O)c(Cl)cc1Cl)C(=O)N[C@H]1C[C@H]2CC[C@@H](C1)N2c1ccc(C(=O)O)cn1 [Example 474, 6-[3-endo-({2-[2,4-dichloro-5-(2-hydroxypropan-2-yl)phenoxy]-2-methylpropanoyl}amino)-8-azabicyclo[3.2.1]oct-8-yl]pyridine-3-carboxylic acid] | < 2 µM
CC(C)(Oc1cc(C(C)(C)O)c(Cl)cc1Cl)C(=O)N[C@H]1C[C@H]2CC[C@@H](C1)N2c1ccc(C(=O)NCC(F)(F)F)cn1 [Example 475, 6-[3-endo-({2-[2,4-dichloro-5-(2-hydroxypropan-2-yl)phenoxy]-2-methylpropanoyl}amino)-8-azabicyclo[3.2.1]oct-8-yl]-N-(2,2,2-trifluoroethyl)pyridine-3-carboxamide] | < 0.2 µM
CC(C)(Oc1ccc(Cl)cc1Cl)C(=O)N[C@H]1C[C@H]2CC[C@@H](C1)N2c1ccc(C(=O)NCC(=O)C(F)(F)F)cn1 [Example 476, 6-(3-endo-{[2-(2,4-dichlorophenoxy)-2-methylpropanoyl]amino}-8-azabicyclo[3.2.1]oct-8-yl)-N-(3,3,3-trifluoro-2-oxopropyl)pyridine-3-carboxamide] | < 0.2 µM
CC(C)NC(=O)c1ccc(N2[C@@H]3CC[C@H]2C[C@@H](NC(=O)C(C)(C)Oc2cc(C(C)(C)O)c(Cl)cc2Cl)C3)nc1 [Example 477, 6-[3-endo-({2-[2,4-dichloro-5-(2-hydroxypropan-2-yl)phenoxy]-2-methylpropanoyl}amino)-8-azabicyclo[3.2.1]oct-8-yl]-N-(propan-2-yl)pyridine-3-carboxamide] | < 0.2 µM
C=C(C)c1cc(OC(C)(C)C(=O)N[C@H]2C[C@H]3CC[C@@H](C2)N3c2ccc(C(=O)NCC(F)F)cn2)c(Cl)cc1Cl [Example 478, 6-[3-endo-({2-[2,4-dichloro-5-(prop-1-en-2-yl)phenoxy]-2-methylpropanoyl}amino)-8-azabicyclo[3.2.1]oct-8-yl]-N-(2,2-difluoroethyl)pyridine-3-carboxamide] | < 0.2 µM
CC(C)(Oc1cc(C(C)(C)O)c(Cl)cc1Cl)C(=O)N[C@H]1C[C@H]2CC[C@@H](C1)N2c1ccc(C(=O)NCC(F)F)c[n+]1[O-] [Example 479, 6-[3-endo-({2-[2,4-dichloro-5-(2-hydroxypropan-2-yl)phenoxy]-2-methylpropanoyl}amino)-8-azabicyclo[3.2.1]oct-8-yl]-N-(2,2-difluoroethyl)pyridine-3-carboxamide 1-oxide] | < 2 µM
N-(2,2-difluoroethyl)-6- [3-endo-({2-[2-fluoro-4- (2-hydroxypropan-2- yl)phenoxy]-2- methylpropanoyl}amino)- 8-azabicyclo[3.2.1]oct- 8-yl]pyridine-3- carboxamide [Example 305] | < 0.2 µM
